The results in this text go back to patent US7767716B2, “Acyl hydrazines as kinase inhibitors, in particular for SGK” (Merck Patent GmbH, priority 2005, dated 2010).

Molecules are shown by their SMILES. Where “and” joins values, the source holds several entries; their conditions need not be identical. Equal values may be shown once.

Take `O=C(Cc1cccc(O)c1)NNC(=O)c1cc([N+](=O)[O-])cc([N+](=O)[O-])c1`: the melting point lay in the range of 248 to 249 °C.

In turn, `O=C(Cc1cccc(O)c1)NNC(=O)c1ccc(O)cc1O` [compound 1] came in with a melting point of 233 to 235 °C.

In turn, `O=C(Cc1cccc(O)c1)NNC(=O)c1ccc(OCc2ccccc2)cc1` [compound 2] gave a melting point of 199 to 200 °C.

Molecule `O=C(Cc1cccc(O)c1)NNC(=O)c1ccc(O)cc1` [compound 3] had a melting point of 207 to 208 °C.

In turn, `O=C(Cc1cccc(O)c1)NNC(=O)c1cccc(OCc2ccccc2)c1` [compound 4] returned a melting point of 152 to 153 °C.

In turn, `O=C(Cc1cccc(O)c1)NNC(=O)c1ccccc1O` [compound 5] yielded a melting point of 214 to 215 °C.

As for `O=C(Cc1cccc(O)c1)NNC(=O)c1cccc(O)c1` [compound 6], the melting point lay in the range of 224 to 225 °C.

For `O=C(Cc1cccc(O)c1)NNC(=O)c1ccc(OCc2ccccc2)cc1Cl` [compound 7], the melting point fell in the range of 162 to 164 °C.

Molecule `O=C(Cc1cccc(O)c1)NNC(=O)c1ccc(O)cc1Cl` [compound 8] displayed a melting point of 165 to 166 °C.

Regarding `COc1cc(Cl)c(C(=O)NNC(=O)Cc2cccc(O)c2)cc1OC` [compound 9], the melting point was in the range of 174 to 175 °C.

The molecule `COc1cc(I)c(C(=O)NNC(=O)Cc2cccc(O)c2)cc1OC` [compound 10] had a melting point of 199 to 200 °C.

The molecule `COc1cc(C(=O)NNC(=O)Cc2cccc(O)c2)c([N+](=O)[O-])cc1OC` [compound 11] displayed a melting point of 226 to 227 °C.

On to `COc1cc(F)c(C(=O)NNC(=O)Cc2cccc(O)c2)c(F)c1` [compound 12], for which the melting point lay within 198 to 199 °C.

In the case of `COc1ccc(C(=O)NNC(=O)Cc2cccc(O)c2)c(C)c1` [compound 13], the melting point lay in the range of 171 to 172 °C.

On to `COc1cc(OCc2ccccc2)ccc1C(=O)NNC(=O)Cc1cccc(O)c1` [compound 14], for which the melting point fell in the range of 193 to 194 °C.

On to `O=C(Cc1cccc(O)c1)NNC(=O)c1cc(Cl)ccc1Br` [compound 15], for which the melting point was in the range of 212 to 213 °C.

Regarding `O=C(Cc1cccc(O)c1)NNC(=O)c1ccc(OC(F)(F)F)cc1` [compound 16], the melting point lay in the range of 189 to 190 °C.

On to `COc1ccccc1C(=O)NNC(=O)Cc1cccc(O)c1` [compound 17], for which the melting point was in the range of 181 to 182 °C.

In turn, `Cc1cccc(C(=O)NNC(=O)Cc2cccc(O)c2)c1` [compound 18] displayed a melting point of 156 to 157 °C.

For the molecule `COC(=O)c1ccc(C(=O)NNC(=O)Cc2cccc(O)c2)cc1` [compound 19], the melting point lay within 201 to 202 °C.

Molecule `O=C(Cc1cccc(O)c1)NNC(=O)c1cccc([N+](=O)[O-])c1` [compound 20] returned a melting point of 179 °C.

The molecule `O=C(Cc1cccc(O)c1)NNC(=O)c1ccccc1F` [compound 21] gave a melting point of 154 to 155 °C.

`Cc1ccc(C(=O)NNC(=O)Cc2cccc(O)c2)cc1` [compound 22]: the melting point is 175 to 176 °C.

In turn, `O=C(Cc1cccc(O)c1)NNC(=O)c1ccccc1Cl` [compound 23] had a melting point of 172 °C.

In turn, `O=C(Cc1cccc(O)c1)NNC(=O)c1cccc(Cl)c1` [compound 24] returned a melting point of 183 to 184 °C.

The molecule `O=C(Cc1cccc(O)c1)NNC(=O)c1ccc(Cl)cc1Cl` [compound 25] displayed a melting point of 202 to 203 °C.

`O=C(Cc1cccc(O)c1)NNC(=O)c1ccccc1I` [compound 27] displayed a melting point of 190 to 191 °C.

The molecule `O=C(Cc1cccc(O)c1)NNC(=O)c1ccc(Br)cc1` [compound 28] returned a melting point of 229 °C.

Take `COc1ccc(C(=O)NNC(=O)Cc2cccc(O)c2)c(OC)c1` [compound 29]: the melting point was 197 to 198 °C.

With `Cc1ccccc1C(=O)NNC(=O)Cc1cccc(O)c1` [compound 30], the melting point lay in the range of 197 to 198 °C.

Molecule `O=C(Cc1cccc(O)c1)NNC(=O)c1ccc(F)cc1` [compound 31] had a melting point of 182 to 183 °C.

With `O=C(Cc1cccc(O)c1)NNC(=O)c1ccc2ccccc2c1` [compound 32], the melting point is 201 to 202 °C.

Molecule `O=C(Cc1cccc(O)c1)NNC(=O)c1cccc(Br)c1` [compound 33] yielded a melting point of 194 to 195 °C.

The molecule `O=C(Cc1cccc(O)c1)NNC(=O)c1cccc2ccccc12` [compound 34] came in with a melting point of 210 to 211 °C.

As to `COc1cc(O)ccc1C(=O)NNC(=O)Cc1cccc(O)c1` [compound 35], the melting point fell in the range of 208 to 209 °C.

In turn, `COc1ccc(C(=O)NNC(=O)Cc2cccc(O)c2)cc1` [compound 36] yielded a melting point of 158 to 159 °C.

In turn, `O=C(Cc1cccc(O)c1)NNC(=O)c1cccc(F)c1` [compound 37] displayed a melting point of 176 to 177 °C.

Molecule `O=C(Cc1cccc(O)c1)NNC(=O)c1c(F)cccc1F` [compound 38] had a melting point of 191 to 192 °C.

Consider `N#Cc1cccc(C(=O)NNC(=O)Cc2cccc(O)c2)c1` [compound 39], for which the melting point lay in the range of 181.5 to 182.5 °C.

As for `O=C(Cc1cccc(O)c1)NNC(=O)c1cccc(Cl)c1Cl` [compound 40], the melting point lay within 220 to 221 °C.

For `O=C(Cc1cccc(O)c1)NNC(=O)c1ccc(F)c(F)c1` [compound 41], the melting point worked out at 164 °C.

Consider `CCOc1cccc(C(=O)NNC(=O)Cc2cccc(O)c2)c1` [compound 42], for which the melting point was in the range of 130 to 132 °C.

The molecule `CC(C)(C)c1ccc(C(=O)NNC(=O)Cc2cccc(O)c2)cc1` [compound 43] gave a melting point of 183 to 184 °C.

`CCc1ccc(C(=O)NNC(=O)Cc2cccc(O)c2)cc1` [compound 44] showed a melting point of 155 to 156 °C.

As for `CCOc1ccc2ccccc2c1C(=O)NNC(=O)Cc1cccc(O)c1` [compound 45], the melting point lay in the range of 148 to 150 °C.

As for `O=C(Cc1cccc(O)c1)NNC(=O)c1ccc(SC(F)(F)F)cc1` [compound 46], the melting point was in the range of 165 to 166 °C.

`O=C(Cc1cccc(O)c1)NNC(=O)c1ccccc1C(F)(F)F` [compound 47] returned a melting point of 195 to 196 °C.

`O=C(Cc1cccc(O)c1)NNC(=O)c1cccc(OC(F)(F)F)c1` [compound 48]: the melting point lay in the range of 256 to 257 °C.

For `O=C(Cc1cccc(O)c1)NNC(=O)c1ccccc1[N+](=O)[O-]` [compound 49], the melting point was in the range of 206 to 207 °C.

`O=C(Cc1cccc(O)c1)NNC(=O)c1ccc(Cl)cc1` [compound 50] gave a melting point of 223 °C.

`O=C(Cc1cccc(O)c1)NNC(=O)c1ccccc1` [compound 51] came in with a melting point of 162 to 163 °C.

The molecule `O=C(Cc1cccc(O)c1)NNC(=O)c1cccc(C(Cl)Cl)c1` [compound 52] yielded a melting point of 154 to 155 °C.

For the molecule `O=C(Cc1cccc(O)c1)NNC(=O)c1cccc(C(F)(F)F)c1` [compound 53], the melting point lay in the range of 161 to 162 °C.

Take `O=C(Cc1cccc(O)c1)NNC(=O)c1ccc(CCl)cc1` [compound 54]: the melting point lay within 175 to 176 °C.

With `COc1cccc(C(=O)NNC(=O)Cc2cccc(O)c2)c1` [compound 55], the melting point lay in the range of 138 to 139 °C.

The molecule `O=C(Cc1cccc(O)c1)NNC(=O)c1ccc([N+](=O)[O-])cc1` [compound 56] registered a melting point of 222 to 223 °C.

In turn, `Cc1cc(O)cc(O)c1C(=O)NNC(=O)Cc1cccc(O)c1` [compound 57] displayed a melting point of 226 to 227 °C.

Turning to `Cc1cc(OCc2ccccc2)cc(OCc2ccccc2)c1C(=O)NNC(=O)Cc1cccc(O)c1` [compound 58], the melting point was 165 to 166 °C.

`CCc1cc(OCc2ccccc2)ccc1C(=O)NNC(=O)Cc1cccc(O)c1` [compound 59, N′-[2-(3-hydroxyphenyl)acetyl]-4-benzyloxy-2-ethylbenzohydrazide] showed a melting point of 190 to 191 °C.

As to `CCc1cc(O)ccc1C(=O)NNC(=O)Cc1cccc(O)c1` [compound 60, N′-[2-(3-hydroxyphenyl)acetyl]-2-ethyl-4-hydroxybenzohydrazide], the melting point is 199 to 200 °C.

Turning to `Cc1cc(O)c(C)c(O)c1C(=O)NNC(=O)Cc1cccc(O)c1` [compound 61], the melting point was in the range of 193 to 194 °C.

The molecule `CCc1cc(O)cc(O)c1C(=O)NNC(=O)Cc1cccc(O)c1` [compound 62] gave a melting point of 251 °C.

With `O=C(Cc1cccc(O)c1)NNC(=O)c1c(O)cc(O)cc1Br` [compound 63], the melting point fell in the range of 226 to 227 °C.

For the molecule `O=C(Cc1cccc(O)c1)NNC(=O)c1c(Br)cc(OCc2ccccc2)cc1OCc1ccccc1` [compound 64], the melting point fell in the range of 194 to 195 °C.

`COc1ccc(CC(=O)NNC(=O)c2c(C)cc(O)cc2O)cc1O` [compound 66] displayed a melting point of 232 to 233 °C.

`O=C(Cc1cccc(O)c1)NNC(=O)c1c(O)cc(O)cc1O` [compound 68, N′-[2-(3-hydroxyphenyl)acetyl]-2,4,6-trihydroxybenzohydrazide] had a melting point of 237 to 238 °C.

For `CCCc1cc(O)cc(O)c1C(=O)NNC(=O)Cc1cccc(O)c1` [compound 69], the melting point is 198 to 200 °C.

For `O=C(Cc1cccc(O)c1)NNC(=O)c1c(O)cc(O)cc1Cl` [compound 70, N′-[2-(3-hydroxyphenyl)acetyl]-2-chloro-4,6-dihydroxybenzohydrazide], the melting point is 217 °C and 213 to 215 °C.

In turn, `O=C(Cc1cccc(O)c1)NNC(=O)c1ccc(O)cc1C(F)(F)F` [compound 71] gave a melting point of 210 to 212 °C.

Turning to `O=C(Cc1cccc(O)c1)NNC(=O)c1c(O)cc(O)cc1F` [compound 72], the melting point fell in the range of 230 to 232 °C.

The molecule `O=C(Cc1cccc(O)c1)NNC(=O)c1c(O)cc(O)cc1Br` [compound 73] yielded a melting point of 259 °C.

As to `O=C(Cc1cccc(O)c1)NNC(=O)c1ccc(O)c([N+](=O)[O-])c1` [compound 74, N′-[2-(3-hydroxyphenyl)acetyl]-4-hydroxy-3-nitrobenzohydrazide], the melting point lay within 190 to 193 °C.

Molecule `Cc1cc(C(=O)NNC(=O)Cc2cccc(O)c2)ccc1O` [compound 75] showed a melting point of 207 to 208 °C.

Turning to `CC(C)(C)c1cc(C(=O)NNC(=O)Cc2cccc(O)c2)ccc1O` [compound 76], the melting point is 154 to 157 °C.
